Where a name gives a salt, the structure may show the parent alone.

Data on three compounds can be found in patent publication US9539322B2, “Method of enhancing an antitumor T cell response by administering an anti-IL-6 receptor antibody” (National University Corporation Hokkaido University, priority 2010, dated 2017).

Test [1] concerns methylcholanthrene-induced squamous cancer CMC-1. The experiment in a line: Antitumor effect of GEM in CMC-1-inoculated mice (tumor growth). It is filed as in vivo. As to conditions: CMC-1 intradermal in BALB/c mice; 120 mg/kg i.p. every week from day 5; FIG. 1. The procedure:
Cell line of methylcholanthrene-induced squamous cancer CMC-1 (2×10^6 cells) was intradermally inoculated to BALB/c mice, and from day 5 after inoculation, GEM (Gemzar: gemcitabine hydrochloride) was intraperitoneally administered at 120 mg/kg every week. The tumor growth was measured every two days to evaluate the antitumor effect of GEM.

The subject of a further test is CD8^+ cells. The experiment in a line: Growth ability of spleen CD8+ cells after anti-CD3 stimulation (3H incorporation test), CMC-1 tumor-bearing mice. The format is in vivo, BALB/c mice. As to conditions: i.p. 30 days after CMC-1 inoculation (GEM; CY 60 mg/kg; 5-FU 120 mg/kg); spleen CD8+ cells after 48 hours; 60 hours immobilized anti-CD3 2 μg/ml; FIG. 3. The procedure: (§1) GEM was administered to the tumor-bearing mice 30 days after CMC-1 inoculation, and after 48 hours the absolute number of respective cell populations in the spleen were analyzed by flow cytometry. Cyclophosphamide (CY) (60 mg/kg), fluoro-5-uracil (5-FU) (120 mg/kg), or GEM was intraperitoneally administered to tumor-bearing mice 30 days after CMC-1 inoculation. After 48 hours, CD8^+ cells were isolated from the spleen, and the growth ability after 60 hours of stimulation with immobilized anti-CD3 antibody (2 μg/ml) was assessed by ^3H incorporation test.

The next test has as its system CD8^+ T cells. The experiment in a line: Tumor diameter with GEM and anti-CD8 antibody (CMC-1); proportion of OVA-specific CD8+ cytotoxic T cells (LLC-OVA). It is filed as in vivo, BALB/c mice; C57BL6 mice. As to conditions: GEM 120 mg/kg i.p.; anti-CD8 antibody 250 μg i.v. every three days (CMC-1); OVA-specific CD8+ CTL in regional lymph nodes (LLC-OVA); FIG. 4, 5. The procedure: CMC-1 (2×10^6) was intradermally inoculated to BALB/c mice. From day 5 after inoculation, GEM (120 mg/kg) was intraperitoneally administered every week and anti-CD8 antibody (250 μg) was intravenously administered every three days. The tumor diameter was measured every two days. LLC-OVA (2×10^6) prepared by introducing the ovalbumin (OVA) gene into mouse lung cancer cell line LLC was intradermally inoculated to C57BL6 mice, and after five days GEM (120 mg/kg) was intraperitoneally administered. After nine days, the regional lymph nodes were collected and assessed by flow cytometry for the proportion of OVA-specific CD8^+ cytotoxic T cells.

The subject of a further test is immunosuppressive cells. The experiment in a line: Flow cytometry of the absolute number of cell populations in the spleen of CMC-1 tumor-bearing mice. It is filed as in vivo, BALB/c mice. The note with it: tumor-bearing mice 30 days after CMC-1 inoculation; 48 hours after administration; FIG. 2. As for the experimental part:
as §1
In general terms: Flow cytometry measures light scatter and fluorescence of single cells or particles in a stream.

Regarding `Nc1ccn([C@@H]2O[C@H](CO)[C@@H](O)C2(F)F)c(=O)n1` [GEM, gemcitabine hydrochloride], the tumor growth-suppressive effect result in test [1] is “tumor growth-suppressive effect”. In the test with CD8^+ cells, the “growth-enhancing effect for CD8+ T cells” value is “excellent growth-enhancing effect for CD8^+ T cells”. In addition, the “antitumor effect through CD8+ T cell activity” value in the test on CD8^+ T cells is recorded as “produces the antitumor effect by enhancing the activity of CD8^+ T cells”. In addition, the “elimination of immunosuppressive cells in the spleen” value in the test on immunosuppressive cells is reported as “eliminates immunosuppressive cells”.
With `O=c1[nH]cc(F)c(=O)[nH]1` [5-FU, fluoro-5-uracil], the “growth-enhancing effect for CD8+ T cells” value with CD8^+ cells was “not observed”.
Same read-out and setting: the entry for `O=P1(N(CCCl)CCCl)NCCCO1` (stereo not drawn) [CY, Cyclophosphamide] is “not observed”.
